Results published in US10610125B2, “Methods and compositions for cell-proliferation-related disorders” (Agios Pharmaceuticals, Inc., priority 2009, dated 2020).
Several values for one entry are separate records, joined by “and”; a condition that tells them apart may be missing. Identical values can stand only once. Like-named read-outs stand apart in the source and are kept apart here.

What was measured:
ICDH1 R132H = ICDH1 R132H (Homo sapiens (Human), UniProt O75874, R132H); assay: IDH1 R132H inhibition assay (NADPH/aKG, resazurin to resorufin fluorescence); format: biochemical; details: for IC50 Ratio (40/4): ratio of IC50 at 40 uM to 4 uM NADPH; for IC50: IDH1 R132H
ICDH1 R132H, sequence (O75874 whole entry R132H): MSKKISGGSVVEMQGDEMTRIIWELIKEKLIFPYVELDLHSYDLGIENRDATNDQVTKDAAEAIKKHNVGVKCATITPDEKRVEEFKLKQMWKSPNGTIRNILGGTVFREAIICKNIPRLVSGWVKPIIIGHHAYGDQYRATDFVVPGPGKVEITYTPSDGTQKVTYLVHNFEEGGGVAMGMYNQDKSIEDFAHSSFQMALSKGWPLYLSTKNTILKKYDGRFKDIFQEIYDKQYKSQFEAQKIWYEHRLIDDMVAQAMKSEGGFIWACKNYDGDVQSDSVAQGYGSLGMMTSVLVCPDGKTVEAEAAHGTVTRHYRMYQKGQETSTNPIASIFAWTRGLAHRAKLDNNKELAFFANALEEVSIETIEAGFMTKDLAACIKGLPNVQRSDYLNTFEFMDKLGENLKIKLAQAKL
Description: Assays were conducted in a volume of 76 ul assay buffer (150 mM NaCl, 10 mM MgCl2, 20 mM Tris pH 7.5, 0.03% bovine serum albumin) as follows in a standard 384-well plate: To 25 ul of substrate mix ([…], 2 mM aKG), 1 ul of test compound was added in DMSO. […] The reaction was incubated for 50 minutes at room temperature, then 25 ul of detection mix (30 uM resazurin, […]) was added and the mixture further incubated for 5 minutes at room temperature. The conversion of resazurin to resorufin was detected by fluorescent spectroscopy at Ex544 Em590 c/o 590.
(§1) The selectivity between wild type vs mutant could be >20-fold.

IDH1 wt [1] = target: T1, IDH1 wt (Homo sapiens (Human), UniProt O75874); assay: IDH1 wt assay for inhibitor selectivity (1×Km of NADPH); format: biochemical; details: 1x Km NADPH; for IC50: read-out: IDH1wt IC50 @ 1x Km
T1 sequence (O75874 whole entry): as the sequence (O75874 whole entry R132H) above, with H132R counted along it
Source text: as §1

IDH1 wild-type [2] = target: T2, IDH1 wild-type (Homo sapiens (Human), UniProt O75874); assay: Oxidative decarboxylation of isocitrate to α-KG by IDH1 wild-type (340 nm); format: biochemical; details: for effect on oxidative decarboxylation of isocitrate by wild-type ICDH1: added in a titration series
T2 sequence (O75874 whole entry): as the sequence (O75874 whole entry R132H) above, with H132R counted along it
Description: (§2) In these reactions, the substrate was varied while the cofactor was held constant at 500 uM. All reactions were performed in 150 mM NaCl, 20 mM Tris-Cl, pH 7.5, 10% glycerol, and 0.03% (w/v) BSA). Reaction progress was followed by spectroscopy at 340 nM monitoring the change in oxidation state of the cofactor. Sufficient enzyme was added to give a linear change in absorbance for 10 minutes.
(§3) A well-known regulatory mechanism for control of metabolic enzymes is feedback inhibition, in which the product of the reaction acts as a negative regulator for the generating enzyme.

IDH1 R132C [3] = target: T3, IDH1 R132C (Homo sapiens (Human), UniProt O75874, R132C); assay: IDH1/2 activity assay, forward reaction (isocitrate, NADP+), stopped-flow, IDH1 R132C; format: biochemical
T3 sequence (O75874 whole entry R132C): as the sequence (O75874 whole entry R132H) above, with H132C counted along it
Description: (§4) Enzymatic binding constants were determined using curve fitting algorithms to standard kinetic models with the Sigmaplot software package (Systat Software, San Jose, Calif.). For determination of kcat, enzyme was incubated with 5×Km of substrate and cofactor; consumption of NADPH or NADP was determined by a change in the OD340 over time. In both cases an extinction coefficient of 6200 M^−1 cm^−1 was used for NADPH.

IDH1 R132S [4] = target: T4, IDH1 R132S (Homo sapiens (Human), UniProt O75874, R132S); assay: Reduction of alpha-ketoglutarate with NADH by IDH1 R132S; format: biochemical; details: NADH 0.5 mM, alpha-Ketoglutarate 5 mM, R132S 30 ug/ml
T4 sequence (O75874 whole entry R132S): as the sequence (O75874 whole entry R132H) above, with H132S counted along it
Description: (§5) In order to evaluate the ability of the mutant enzymes to utilize NADH in the reduction of alpha-ketoglutarate, the following experiment was conducted.

IDH1 wt [5] = target: T1, IDH1 wt; assay: Reduction of alpha-ketoglutarate with NADH by IDH1 wild type; format: biochemical; details: IDH1 wt 5 ug/ml, NADH 0.5 mM
Description: as §5

IDH1 R132H [6] = target: T5, IDH1 R132H (Homo sapiens (Human), UniProt O75874, R132H); assay: Reduction of alpha-ketoglutarate with NADH by IDH1 R132H; format: biochemical; details: R132H 60 ug/ml, NADH 0.5 mM
T5 sequence (O75874 whole entry R132H): as the sequence (O75874 whole entry R132H) above
Description: as §5

IDH1 R132C [7] = target: T3, IDH1 R132C; assay: IDH1/2 activity assay, reverse reaction (α-KG, NADPH), stopped-flow, IDH1 R132C; format: biochemical; details: Reductive (→ NADP+)
Description: as §4

IDH1 R132H [8] = target: T5, IDH1 R132H; assay: Oxidative decarboxylation of isocitrate to α-KG by IDH1 R132H (340 nm); format: biochemical
Description: as §2, §3

IDH1 R132S [9] = target: T4, IDH1 R132S; assay: Oxidative decarboxylation of isocitrate to α-KG by IDH1 R132S (340 nm); format: biochemical
Description: as §2, §3

IDH1 wild-type [10] = target: T2, IDH1 wild-type; assay: IDH1/2 activity assay, forward reaction (isocitrate, NADP+), stopped-flow, IDH1 wild-type; format: biochemical; details: Oxidative (→ NADPH), WT
Description: as §4

glioblastoma multiforme [11] = details: cited from earlier work
glioblastoma multiforme [12] = details: cited from earlier work; remark: listed apart in the source
recurrent glioma = recurrent glioma patients; cited from earlier work
IDH1 R132H [13] = target: T5, IDH1 R132H; assay: Reduction of α-KG with NADPH by IDH1 R132H; format: biochemical
Description: (§6) In these reactions, substrate was varied while the cofactor was held constant at 500 uM. All reactions were performed in 50 mM potassium phosphate buffer, pH 6.5, 10% glycerol, 0.03% (w/v) BSA, 5 mM MgCl2, and 40 mM sodium hydrocarbonate. Reaction progress was followed by spectroscopy at 340 nM monitoring the change in oxidation state of the cofactor. Sufficient enzyme was added to give a linear change in absorbance for 10 minutes.

IDH1 R132S [14] = target: T4, IDH1 R132S; assay: Reduction of α-KG with NADPH by IDH1 R132S; format: biochemical
Description: as §6

IDH1 wild-type [15] = target: T2, IDH1 wild-type; assay: Reduction of α-KG with NADPH by IDH1 wild-type; format: biochemical; details: 40 ug/ml enzyme
Description: as §6

IDH1 wild-type [16] = target: T2, IDH1 wild-type; assay: IDH1/2 activity assay, reverse reaction (α-KG, NADPH), stopped-flow, IDH1 wild-type; format: biochemical; details: Reductive (→ NADP+); WT; est.
Description: as §4

[17] = read-out: ICDH IC50 (uM) @ 4 uM (10x Km) NADPH, 4 uM (10x Km) NADPH
[18] = read-out: ICDH IC50 (uM) @ 40 uM NADPH, 40 uM (100x Km) NADPH
[19] = for isocitrate, cofactor 500 uM
[20] = with radiation, vs radiation alone
[21] = without MGMT promoter methylation
[22] = α-KG product inhibition, competitive with isocitrate, read-out: Ki
[23] = for α-KG, cofactor 500 uM, pH 6.5
[24] = α-KG varied, cofactor 500 uM, pH 6.5

Cc1c(/C=C2\Sc3ccccc3C2=O)c(O)n2c(nc3ccccc32)c1C#N
IC50 Ratio (40/4) (ICDH1 R132H): 17.42 | IC50 (ICDH1 R132H; [17]): 5.74 µM | IC50 (ICDH1 R132H; [18]): > 100 µM | IC50 (IDH1 wt [1]): 16.2 µM

Cc1ccc(C2=NN(c3ccccc3)C(c3cn(CCC(=O)O)nc3-c3ccccc3)C2)cc1 (stereo not drawn)
IC50 Ratio (40/4) (ICDH1 R132H): 3.38 | IC50 (ICDH1 R132H; [17]): 12.3 µM | IC50 (ICDH1 R132H; [18]): 41.4 µM | IDH1wt IC50 @ 1x Km (uM) (IDH1 wt [1]): NO inhibition

O=C1NC(=S)S/C1=C\c1cccc(OC(=O)c2cccc(F)c2)c1
IC50 Ratio (40/4) (ICDH1 R132H): 1.15 | IC50 (ICDH1 R132H; [17]): 12.8 µM | IC50 (ICDH1 R132H; [18]): 14.7 µM | IC50 (IDH1 wt [1]): 19.2 µM

Cc1cc(C(=O)O)ccc1-c1ccc(/C=C2/NC(=O)N(Cc3ccc(Br)cc3)C2=O)o1
IC50 Ratio (40/4) (ICDH1 R132H): 1.28 | IC50 (ICDH1 R132H; [17]): 15 µM | IC50 (ICDH1 R132H; [18]): 19.2 µM | IC50 (IDH1 wt [1]): 46.8 µM

O=C1NC(=S)S/C1=C/c1cccc(OCc2ccc([N+](=O)[O-])cc2)c1
IC50 Ratio (40/4) (ICDH1 R132H): 1.39 | IC50 (ICDH1 R132H; [17]): 23.8 µM | IC50 (ICDH1 R132H; [18]): 33.2 µM | IC50 (IDH1 wt [1]): 69.3 µM

O=C(O)CC[C@@H](O)C(=O)O [(R)-2-hydroxyglutarate]
effect on oxidative decarboxylation of isocitrate by wild-type ICDH1 (IDH1 wild-type [2]): did not show any effect

[Cl-].[Cl-].[Mg+2] [MgCl2]
Km (IDH1 R132C [3]; Oxidative (→ NADPH), read-out: KM,MgCl2): 450 µM

NC(=O)C1=CN([C@@H]2O[C@H](COP(=O)(O)OP(=O)(O)OC[C@H]3O[C@@H](n4cnc5c(N)ncnc54)[C@H](O)[C@@H]3O)[C@@H](O)[C@H]2O)C=CC1 [NADH]
Consumption of NADH, Mean (IDH1 R132S [4]): 0.709 Umol/min/mg | Consumption of NADH, individual runs (IDH1 R132S [4]): 0.7183 Umol/min/mg and 0.6997 Umol/min/mg | Rate, consumption of NADH, Mean (IDH1 R132S [4]): 0.001103 ΔA/sec | Rate, consumption of NADH, individual runs (IDH1 R132S [4]): 0.001117 ΔA/sec and 0.001088 ΔA/sec | consumption of NADH in the presence of alpha-ketoglutarate (IDH1 wt [5]): no measurable consumption | consumption of NADH in the presence of alpha-ketoglutarate (IDH1 R132H [6]): no measurable consumption

NC(=O)c1ccc[n+]([C@@H]2O[C@H](COP(=O)([O-])OP(=O)(O)OC[C@H]3O[C@@H](n4cnc5c(N)ncnc54)[C@H](OP(=O)(O)O)[C@@H]3O)[C@@H](O)[C@H]2O)c1 [NADP+]
Km (IDH1 R132C [3]; Oxidative (→ NADPH), read-out: KM,NADP+): 21 µM

NC(=O)C1=CN([C@@H]2O[C@H](COP(=O)(O)OP(=O)(O)OC[C@H]3O[C@@H](n4cnc5c(N)ncnc54)[C@H](OP(=O)(O)O)[C@@H]3O)[C@@H](O)[C@H]2O)C=CC1 [NADPH]
Km (IDH1 R132C [7]; read-out: KM,NADPH): 0.3 µM

O=C(O)C(=O)C(C(=O)O)C(O)C(=O)O (stereo not drawn) [Oxalomalate, oxalomalate]
Ki (IDH1 wild-type [2]; IDH1 wt 1.5 ug/ml, NADP 0.5 mM, DL-isocitrate 5-650 uM, read-out: Oxalomalate Ki): 955 µM | Ki (IDH1 R132H [8]; IDH1R132H 60 ug/ml, NADP 0.5 mM, DL-isocitrate 5-650 uM, read-out: Oxalomalate Ki): 951 µM | susceptibility to inhibition by oxalomalate (IDH1 R132H [8]; R132H vs wt): essentially unaffected | Ki (IDH1 R132S [9]; IDH1R132S 30 ug/ml, NADP 0.5 mM, DL-isocitrate 5-650 uM, read-out: Oxalomalate Ki): 510 µM | increase in susceptibility to inhibition by oxalomalate (IDH1 R132S [9]; R132S vs wt): two-fold

O=C(O)CC(C(=O)O)C(O)C(=O)O (stereo not drawn) [isocitrate]
Km (IDH1 wild-type [2]; [19]): 56.8 µM | Km (IDH1 R132H [8]; [19]): 172 µM | Km (IDH1 wild-type [10]; read-out: KM,isocitrate): 57 µM | Km (IDH1 R132C [3]; read-out: KM,isocitrate, Oxidative (→ NADPH)): 87000 µM

O=C(O)CCC(O)C(=O)O (stereo not drawn) [reaction product 2-HG, 2-hydroxyglutarate]
effect on oxidative decarboxylation of isocitrate by wild-type ICDH1 (IDH1 wild-type [2]): inhibit

Cn1nnc2c(C(N)=O)ncn2c1=O [temozolomide, Temozolomide]
tolerability (glioblastoma multiforme [11]; in vivo): well tolerated | likelihood of being alive in 2 years (glioblastoma multiforme [11]; [20]): 26% | median progression-free survival (glioblastoma multiforme [11]; [20]): 6.9 mo | overall survival (glioblastoma multiforme [11]; [20]): 14.6 mo | 2-year survival rate (glioblastoma multiforme [12]; with MGMT promoter methylation): 46% | median survival (glioblastoma multiforme [12]; with MGMT promoter methylation): 21.7 months | 2-year survival rate (glioblastoma multiforme [12]; [21]): 13.8% | median survival (glioblastoma multiforme [12]; [21]): 12.7 months | 6-month survival (recurrent glioma): 21%

O=C(O)CCC(=O)C(=O)O [α-KG, α-Ketoglutarate]
Ki (IDH1 wild-type [2]; [22]): 612 µM | Ki (IDH1 R132H [8]; [22]): 28.6 µM | increase in sensitivity to feedback inhibition as compared to the wild-type enzyme (IDH1 R132H [8]; α-KG, R132H vs wild-type): 20 fold | Ki (IDH1 R132S [9]; [22]): 45.3 µM | increase in sensitivity to feedback inhibition as compared to the wild-type enzyme (IDH1 R132S [9]; α-KG, R132S vs wild-type): 13 fold | Km (IDH1 R132H [13]; [23]): 965 µM | Hill Constant (IDH1 R132H [13]; α-KG varied): 1.8 | Vmax (IDH1 R132H [13]; [24]): 1.3 µmol/min/mg | Km (IDH1 R132S [14]; [23]): 181 µM | Ki (IDH1 R132S [14]; uncompetitive substrate inhibition by α-KG): 24600 µM | Hill Constant (IDH1 R132S [14]; α-KG varied): 0.479 | Vmax (IDH1 R132S [14]; [24]): 2.7 µmol/min/mg | NADPH consumption in reduction of α-KG (IDH1 wild-type [15]): unable to consume NADPH | Ki (IDH1 wild-type [10]; read-out: Ki,αKG): 610 µM | Ki (IDH1 R132C [3]; Oxidative (→ NADPH), read-out: Ki,αKG): 61 µM | Km (IDH1 R132C [7]; read-out: KM,αKG): 295 µM

R132C
kcat (IDH1 R132C [3]; Oxidative (→ NADPH)): 710 s⁻¹ | kcat (IDH1 R132C [7]): 550 s⁻¹

WT
kcat (IDH1 wild-type [10]): 130000 s⁻¹ | kcat (IDH1 wild-type [16]): ~7 (est.) s^−1
